According to patent US20230322846A9, “NEUROACTIVE STEROIDS AND THEIR METHODS OF USE” (SAGE THERAPEUTICS, INC., priority 2018, published 2023):

Experiments:
[1] = target: human GABAA receptors composed of the α1β2γ2 subunits (Homo sapiens (Human), UniProt P14867+P18507+P47870); assay: α1β2γ2 SyncroPatch automated patch clamp assay; assay type: cell-based; conditions: for EC50: HEK cells, potentiation of submaximal GABA current, clamped at −120 mV; for α1β2γ2 EMAX: peak current after GABA+compound divided by peak current after GABA alone
human GABAA receptors composed of the α1β2γ2 subunits, sequence (P14867 28-456 limits assumed): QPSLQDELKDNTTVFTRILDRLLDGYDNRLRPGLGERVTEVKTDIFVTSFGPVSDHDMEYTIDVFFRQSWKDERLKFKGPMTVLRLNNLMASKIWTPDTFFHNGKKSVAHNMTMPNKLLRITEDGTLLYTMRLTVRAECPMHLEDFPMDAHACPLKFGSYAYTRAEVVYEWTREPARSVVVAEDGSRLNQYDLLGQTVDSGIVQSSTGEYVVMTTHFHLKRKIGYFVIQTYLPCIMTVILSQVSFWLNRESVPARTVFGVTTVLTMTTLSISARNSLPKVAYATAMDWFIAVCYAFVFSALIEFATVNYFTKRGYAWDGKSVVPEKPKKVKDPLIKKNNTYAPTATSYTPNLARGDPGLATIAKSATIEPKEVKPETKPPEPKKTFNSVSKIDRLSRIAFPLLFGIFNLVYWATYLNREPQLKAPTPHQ
human GABAA receptors composed of the α1β2γ2 subunits, sequence (P47870 25-512 limits assumed): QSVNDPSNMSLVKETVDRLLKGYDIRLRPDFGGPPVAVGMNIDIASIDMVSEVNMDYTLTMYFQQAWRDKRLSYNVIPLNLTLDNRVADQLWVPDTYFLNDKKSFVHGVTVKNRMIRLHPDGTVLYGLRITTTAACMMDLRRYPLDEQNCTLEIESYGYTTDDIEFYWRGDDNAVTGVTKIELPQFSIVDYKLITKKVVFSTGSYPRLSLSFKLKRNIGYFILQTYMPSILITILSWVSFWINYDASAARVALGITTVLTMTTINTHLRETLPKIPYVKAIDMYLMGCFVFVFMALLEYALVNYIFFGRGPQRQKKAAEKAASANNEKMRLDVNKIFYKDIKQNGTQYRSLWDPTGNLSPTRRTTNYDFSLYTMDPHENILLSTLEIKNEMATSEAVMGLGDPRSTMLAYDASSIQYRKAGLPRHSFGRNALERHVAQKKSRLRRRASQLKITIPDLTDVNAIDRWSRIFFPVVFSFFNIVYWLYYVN
human GABAA receptors composed of the α1β2γ2 subunits, sequence (P18507 40-475 limits assumed): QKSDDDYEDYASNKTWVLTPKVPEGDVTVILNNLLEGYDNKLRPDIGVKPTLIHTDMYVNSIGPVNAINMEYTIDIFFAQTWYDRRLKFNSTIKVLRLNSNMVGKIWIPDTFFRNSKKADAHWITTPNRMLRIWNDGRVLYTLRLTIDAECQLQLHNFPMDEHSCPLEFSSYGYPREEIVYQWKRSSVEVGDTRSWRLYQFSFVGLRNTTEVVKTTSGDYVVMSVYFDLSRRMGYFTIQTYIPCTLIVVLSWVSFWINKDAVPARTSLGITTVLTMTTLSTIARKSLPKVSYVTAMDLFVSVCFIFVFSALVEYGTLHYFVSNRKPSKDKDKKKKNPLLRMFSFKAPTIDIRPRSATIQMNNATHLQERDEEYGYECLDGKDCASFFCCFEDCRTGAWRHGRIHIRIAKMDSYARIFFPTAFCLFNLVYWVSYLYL
Protocol: (§1) The SyncroPatch 384PE (Nanion, Germany) automated patch clamp platform was used to obtain recordings from human embryonic kidney cells stably expressing human GABAA receptors composed of the α1β2γ2 and α4β3δ subunits. Cells were bathed in an extracellular solution containing: 140 mM NaCl, 4 mM KCl, 2 mM CaCl2), 1 mM MgCl2, 10 mM HEPES, 5 mM glucose and 0.1% DMSO. Solution was maintained at pH 7.4 with NaOH and 300 mOsm/L. Chips with multi-hole (4×) medium resistance (2-3M) are used for the recombinant cell line experiments. Once harvested, cells are stored in extracellular solution set to 10° C. in the cell hotel with a minimum shaking speed of 200 rpm before addition to the chip at the beginning of each experiment. Whole cell patch clamp recordings were made using an intracellular solution containing: 90 mM KCl, 50 mM KF, 1.5 mM MgCl2, 11.1 mM EGTA and 10 mM HEPES, 2 mM NaATP, maintained at pH 7.2 with KOH. Currents are leak corrected (using P/2 leak correction protocol) and sampled at 5 kHz. Cells were clamped at −120 mV. After establishing a stable baseline, a submaximal concentration of GABA (3-5 μM for cells expressing α1β2γ2 and 10 μM for cells expressing […]) was applied at a rate of 10 μl/second, immediately followed by application of GABA+compound (10 μl/second) at a single concentration of compound per cell. Compounds were tested at six concentrations (0.029, 0.12, 0.47, 1.88, 7.5, and 30 μM) in n=8-12 cells per concentration. Compound effect was determined by dividing peak current amplitude after GABA+compound by peak current amplitude after GABA alone. EC50 and Emax values were determined from average values for each concentration.

[2] = target: human GABAA receptors composed of the α4β3δ subunits (Homo sapiens (Human), UniProt O14764+P28472+P48169); assay: α4β3δ SyncroPatch automated patch clamp assay; assay type: cell-based; conditions: for EC50: HEK cells, potentiation of submaximal GABA current, clamped at −120 mV; for α4β3δ EMAX: peak current after GABA+compound divided by peak current after GABA alone
human GABAA receptors composed of the α4β3δ subunits, sequence (P48169 36-554 limits assumed): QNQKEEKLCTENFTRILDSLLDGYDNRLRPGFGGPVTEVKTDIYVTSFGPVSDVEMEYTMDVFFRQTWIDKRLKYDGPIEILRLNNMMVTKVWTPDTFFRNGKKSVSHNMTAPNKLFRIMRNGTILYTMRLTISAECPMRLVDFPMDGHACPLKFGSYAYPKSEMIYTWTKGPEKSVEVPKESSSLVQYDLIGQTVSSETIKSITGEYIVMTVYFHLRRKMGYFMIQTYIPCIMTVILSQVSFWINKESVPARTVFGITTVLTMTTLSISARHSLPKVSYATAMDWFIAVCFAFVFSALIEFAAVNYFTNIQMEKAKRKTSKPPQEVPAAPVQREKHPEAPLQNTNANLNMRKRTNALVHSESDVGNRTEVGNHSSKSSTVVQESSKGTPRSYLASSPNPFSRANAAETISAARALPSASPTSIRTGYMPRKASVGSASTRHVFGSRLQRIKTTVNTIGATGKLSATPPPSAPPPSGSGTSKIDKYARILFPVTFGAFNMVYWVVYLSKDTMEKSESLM
human GABAA receptors composed of the α4β3δ subunits, sequence (P28472 26-473 limits assumed): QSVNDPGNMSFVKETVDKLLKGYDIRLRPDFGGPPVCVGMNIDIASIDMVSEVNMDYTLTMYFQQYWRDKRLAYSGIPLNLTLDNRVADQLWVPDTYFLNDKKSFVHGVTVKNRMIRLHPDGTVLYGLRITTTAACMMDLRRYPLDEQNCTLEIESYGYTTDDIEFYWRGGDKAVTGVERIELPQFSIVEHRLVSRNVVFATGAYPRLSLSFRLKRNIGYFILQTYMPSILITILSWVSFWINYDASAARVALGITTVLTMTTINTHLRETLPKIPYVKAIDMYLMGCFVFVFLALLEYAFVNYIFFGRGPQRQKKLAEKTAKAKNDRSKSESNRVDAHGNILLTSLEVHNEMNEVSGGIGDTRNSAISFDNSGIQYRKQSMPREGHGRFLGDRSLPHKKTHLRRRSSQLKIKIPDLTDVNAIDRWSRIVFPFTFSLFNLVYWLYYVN
human GABAA receptors composed of the α4β3δ subunits, sequence (O14764 17-452 limits assumed): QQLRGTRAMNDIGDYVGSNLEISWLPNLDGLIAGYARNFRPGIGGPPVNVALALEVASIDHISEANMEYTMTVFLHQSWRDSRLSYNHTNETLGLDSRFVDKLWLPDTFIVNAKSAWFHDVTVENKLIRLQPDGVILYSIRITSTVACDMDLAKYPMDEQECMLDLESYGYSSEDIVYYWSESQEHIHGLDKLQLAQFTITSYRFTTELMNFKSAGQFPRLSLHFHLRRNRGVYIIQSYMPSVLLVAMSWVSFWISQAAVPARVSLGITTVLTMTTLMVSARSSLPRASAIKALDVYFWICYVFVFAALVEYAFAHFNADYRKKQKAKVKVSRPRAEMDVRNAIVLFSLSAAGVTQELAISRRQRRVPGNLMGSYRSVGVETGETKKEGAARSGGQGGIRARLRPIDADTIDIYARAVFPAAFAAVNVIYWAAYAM
Protocol: as §1

[3] = target: [35S]-TBPS binding, rat brain cortical membranes; assay: Steroid inhibition of [35S]-TBPS binding; conditions: 3 nM [35S]-TBPS, in the presence of 5 mM GABA
How it was run: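 In the presence of […], compounds (DMSO 0.5% final) competed with 3 nM [35S]-TBPS for Sprague-Dawley rat cortical membranes, pH 7.4 phosphate buffer, 90 min, room temperature. Filtration and scintillation counting; specific binding defined by […]; IC50 and maximal inhibition fitted per experiment, averaged as mean ± SEM.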

SMILES | IC50 [3] [nM] | other results
CCC[C@@]1(O)CC[C@@]2(C)[C@H](CC[C@H]3[C@@H]4CC[C@H](C(C)Cn5cc(C#N)cn5)[C@@]4(C)CC(=O)[C@@H]32)C1 (stereo in doubt) [Example 339, 1-((S)-2-((3R,5R,8S,9S,10S,13S,14S,17R)-3-hydroxy-10,13-dimethyl-11-oxo-3-propylhexadecahydro-1H-cyclopenta[a]phenanthren-17-yl)propyl)-1H-pyrazole-4-carbonitrile] | < 100 | EC50 [1]: ≥ 1000 nM; α1β2γ2 EMAX [1]: C (C indicates an Emax response ≥10); EC50 [2]: < 200 nM; α4β3δ EMAX [2]: C (C indicates an Emax response ≥45)
COC[C@@]1(O)CC[C@H]2[C@H](CC[C@@H]3[C@@H]2CC[C@]2(C)[C@@H]([C@@H](C)Nc4ccc(C#N)cn4)CC[C@@H]32)C1 [Example 41, 6-(((R)-1-((3R,5R,8R,9R,10S,13S,14S,17S)-3-hydroxy-3-(methoxymethyl)-13-methylhexadecahydro-1H-cyclopenta[a]phenanthren-17-yl)ethyl)amino)nicotinonitrile] | 100 to 1000 | EC50 [1]: ≥ 1000 nM; α1β2γ2 EMAX [1]: A (A indicates an Emax response <8); EC50 [2]: ≥ 1000 nM; α4β3δ EMAX [2]: B (B indicates an Emax response 30 to <45)
COC[C@@]1(O)CC[C@H]2[C@@H](CC[C@@H]3[C@@H]2CC[C@]2(C)[C@@H]([C@@H](C)Cn4nnc(C)n4)CC[C@@H]32)C1 [Example 53, (3R,5S,8R,9R,10S,13S,14S,17R)-3-(methoxymethyl)-13-methyl-17-((R)-1-(5-methyl-2H-tetrazol-2-yl)propan-2-yl)hexadecahydro-1H-cyclopenta[a]phenanthren-3-ol] | 100 to 1000 | EC50 [1]: ≥ 1000 nM; α1β2γ2 EMAX [1]: A (A indicates an Emax response <8); EC50 [2]: ≥ 1000 nM; α4β3δ EMAX [2]: A (A indicates an Emax response <30)
CCC[C@@]1(O)CC[C@H]2[C@H](CC[C@@H]3[C@@H]2CC[C@]2(C)[C@@H]([C@@H](C)Cn4nnc(C)n4)[C@@H](O)C[C@@H]32)C1 [Example 365, (3R,5R,8R,9R,10S,13S,14S,16S,17R)-13-methyl-17-((R)-1-(5-methyl-2H-tetrazol-2-yl)propan-2-yl)-3-propylhexadecahydro-1H-cyclopenta[a]phenanthrene-3,16-diol] |  | EC50 [1]: ≥ 1000 nM; EC50 [2]: 200 to 1000 nM
COC[C@@]1(O)CC[C@H]2[C@H](CC[C@@H]3[C@@H]2CC[C@]2(C)[C@@H]([C@@H](C)Cc4ccc(C(F)(F)F)nc4)CC[C@@H]32)C1 [Example 420] |  | EC50 [1]: < 200 nM; EC50 [2]: < 200 nM
Cc1cc(C#N)ccc1N[C@H]([C@H]1CC[C@H]2[C@@H]3CC[C@@H]4C[C@](C)(O)CC[C@@H]4[C@H]3CC[C@]12C)C(F)(F)F [Example 490, 3-methyl-4-(((R)-2,2,2-trifluoro-1-((3R,5R,8R,9R,10S,13S,14S,17S)-3-hydroxy-3,13-dimethylhexadecahydro-1H-cyclopenta[a]phenanthren-17-yl)ethyl)amino)benzonitrile] | 100 to 1000 | 
CC[C@@]1(O)CC[C@H]2[C@H](CC[C@@H]3[C@@H]2CC[C@]2(C)[C@@H]([C@@H](C)Nc4ccc(C#N)nc4)CC[C@@H]32)C1 [Example 491, 5-(((R)-1-((3R,5R,8R,9R,10S,13S,14S,17S)-3-ethyl-3-hydroxy-13-methylhexadecahydro-1H-cyclopenta[a]phenanthren-17-yl)ethyl)amino)picolinonitrile] | 100 to 1000 | 
CCOC[C@@]1(O)CC[C@H]2[C@H](CC[C@@H]3[C@@H]2CC[C@]2(C)[C@@H]([C@@H](CC)Nc4cccc(C#N)c4)CC[C@@H]32)C1 [Example 492, 3-(((R)-1-((3R,5R,8R,9R,10S,13S,14S,17S)-3-(ethoxymethyl)-3-hydroxy-13-methylhexadecahydro-1H-cyclopenta[a]phenanthren-17-yl)propyl)amino)benzonitrile] | 1000 to 10000 | 
CCOC[C@@]1(O)CC[C@H]2[C@H](CC[C@@H]3[C@@H]2CC[C@]2(C)[C@@H]([C@H](CC)Nc4ccc(C#N)nc4)CC[C@@H]32)C1 [Example 493, 5-(((S)-1-((3R,5R,8R,9R,10S,13S,14S,17S)-3-(ethoxymethyl)-3-hydroxy-13-methylhexadecahydro-1H-cyclopenta[a]phenanthren-17-yl)propyl)amino)picolinonitrile] | 1000 to 10000 | 
CCOC[C@@]1(O)CC[C@@]2(C)[C@H](CC[C@@H]3[C@@H]2CC[C@]2(C)[C@@H]([C@H](CC)Nc4ccc(C#N)nc4)CC[C@@H]32)C1 [Example 494, 5-(((S)-1-((3R,5R,8R,9S,10S,13S,14S,17S)-3-(ethoxymethyl)-3-hydroxy-10,13-dimethylhexadecahydro-1H-cyclopenta[a]phenanthren-17-yl)propyl)amino)picolinonitrile] | 100 to 1000 | 
CCOC[C@@]1(O)CC[C@@]2(C)[C@H](CC[C@@H]3[C@@H]2CC[C@]2(C)[C@@H]([C@@H](CC)Nc4ccc(C#N)nc4)CC[C@@H]32)C1 [Example 495, 5-(((R)-1-((3R,5R,8R,9S,10S,13S,14S,17S)-3-(ethoxymethyl)-3-hydroxy-10,13-dimethylhexadecahydro-1H-cyclopenta[a]phenanthren-17-yl)propyl)amino)picolinonitrile] | 100 to 1000 | 
CC[C@H](Nc1cccc(C#N)c1)[C@H]1CC[C@H]2[C@@H]3CC[C@@H]4C[C@@](O)(COC)CC[C@@H]4[C@H]3CC[C@]12C [Example 496, 3-(((S)-1-((3R,5R,8R,9R,10S,13S,14S,17S)-3-hydroxy-3-(methoxymethyl)-13-methylhexadecahydro-1H-cyclopenta[a]phenanthren-17-yl)propyl)amino)benzonitrile] | 100 to 1000 | 
CC[C@@H](Nc1cccc(C#N)c1)[C@H]1CC[C@H]2[C@@H]3CC[C@@H]4C[C@@](O)(COC)CC[C@@H]4[C@H]3CC[C@]12C [Example 497, 3-(((R)-1-((3R,5R,8R,9R,10S,13S,14S,17S)-3-hydroxy-3-(methoxymethyl)-13-methylhexadecahydro-1H-cyclopenta[a]phenanthren-17-yl)propyl)amino)benzonitrile] | 100 to 1000 | 
CCOC[C@@]1(O)CC[C@H]2[C@H](CC[C@@H]3[C@@H]2CC[C@]2(C)[C@@H]([C@@H](CC)Cn4ccc(C#N)n4)CC[C@@H]32)C1 [Example 498, 1-((R)-2-((3R,5R,8R,9R,10S,13S,14S,17R)-3-(ethoxymethyl)-3-hydroxy-13-methylhexadecahydro-1H-cyclopenta[a]phenanthren-17-yl)butyl)-1H-pyrazole-3-carbonitrile] | 100 to 1000 | 
CCOC[C@@]1(O)CC[C@H]2[C@H](CC[C@@H]3[C@@H]2CC[C@]2(C)[C@@H]([C@@H](CC)Cn4nccc4C#N)CC[C@@H]32)C1 [Example 500, 1-((R)-2-((3R,5R,8R,9R,10S,13S,14S,17R)-3-(ethoxymethyl)-3-hydroxy-13-methylhexadecahydro-1H-cyclopenta[a]phenanthren-17-yl)butyl)-1H-pyrazole-5-carbonitrile] | 1000 to 10000 | 
CCOC[C@@]1(O)CC[C@H]2[C@H](CC[C@@H]3[C@@H]2CC[C@]2(C)[C@@H]([C@H](CC)Cn4nccc4C#N)CC[C@@H]32)C1 [Example 501, 1-((S)-2-((3R,5R,8R,9R,10S,13S,14S,17R)-3-(ethoxymethyl)-3-hydroxy-13-methylhexadecahydro-1H-cyclopenta[a]phenanthren-17-yl)butyl)-1H-pyrazole-5-carbonitrile] | 100 to 1000 | 
CCOC[C@@]1(O)CC[C@@]2(C)[C@H](CC[C@H]3C4CC[C@H]([C@@H](C)Nc5ccc(-n6ccc(C#N)n6)cn5)[C@@]4(C)CC[C@@H]32)C1 (stereo partly shown) [Example 502] | 100 to 1000 | 
CCOC[C@@]1(O)CC[C@H]2[C@H](CC[C@@H]3[C@@H]2CC[C@]2(C)[C@@H]([C@@H](CC)Nc4ccc(C#N)nc4)CC[C@@H]32)C1 [Example 503] | 100 to 1000 | 
CCOC[C@@]1(O)CC[C@@]2(C)[C@H](CC[C@H]3C4CC[C@H]([C@@H](C)Nc5ccc(-n6cc(C#N)cn6)cn5)[C@@]4(C)CC[C@@H]32)C1 (stereo partly shown) [Example 504] | 100 to 1000 | 
C[C@@]1(O)CC[C@H]2[C@H](CC[C@@H]3[C@@H]2CC[C@]2(C)[C@@H]([C@H](Nc4ccccc4)C(F)(F)F)CC[C@@H]32)C1 [Example 505] | 100 to 1000 | 
